This is an account of results in US7521418B2, “Use of a polyene macrolide antifungal agent in combination with a glycopeptide antibacterial agent” (Theravance, Inc., priority 2003, dated 2009).

In assay [1] the test system is C. krusei ATCC 32672. The assay is described as follows: Checkerboard MIC assay, FICI. The assay is classed as cell-based, Candida krusei. The following applies: combination with Compound 1; C. krusei ATCC 32672. An excerpt: The following assay was used to determine the minimum inhibitory concentration (MIC) and fractional inhibitory concentration index (FICI) for combinations of an antifungal agent and a glycopeptide antibacterial agent. This assay and methods for calculating FICI are well known in the art. See, for example, Eliopoulos, E. G. and R. Moellering, Jr. “Antimicrobial Combinations” in Antibiotics in Laboratory Medicine, edited by V. Lorian, 4th Ed., Williams & Wilkins, Baltimore, MD, pp. 330-396 (1996); […] et al., Antimicrobial Agents and Chemotherapy 47(4):1416-1418 (2003); or […] et al., Antimicrobial Agents and Chemotherapy 46(10):3323-3326 (2002). Procedures, protocols, supplies and equipment used in this assay follow the recommendations approved and published by the National Committee for Clinical Laboratory Standards (NCCLS), Wayne, Pa. as described in NCCLS 2003, “Reference Method for Broth Dilution Antimicrobial Susceptibility Tests for Bacteria that Grow Aerobically; Approved Standard” (NCCLS document M7-A6); NCCLS 2002, “Reference Method for Broth Dilution Antifungal Susceptibility Tests of Filamentous Fungi that Grow Aerobically; Approved Standard” (NCCLS document M38-A); and NCCLS 2002 “Reference Method for Broth Dilution Antifungal Susceptibility Tests of Yeast; Approved Standards-2nd Edition” (NCCLS document M27-A2). Using a checkerboard method, a 2-fold dilution 100× final concentration master plate was prepared using a 96-well U-shape microtiter plate and an appropriate solvent. In the “checkerboard” method, a microtiter plate is divided into “columns” in which each well in the column contains the same amount of an antifungal agent (Compound A) being diluted along the x-axis, and “rows” in which each well in the row contains the same amount of a glycopeptide antibacterial agent (Compound B) being diluted on the y-axis. Also included is a row (or column) for Compound A or B alone. The dilutions used in the checkerboard are exponential (by powers of two). The result is that each well in the microtiter plate contains a unique concentration of the two compounds being tested. […] After mixing, 100 μL of 2× drug combinations were distributed into 96-well microtiter plates. […] Compound A was not added to Column 12, so Column 12 contained only Compound B. Compound B was diluted from row A starting at 6,400 μg/mL down to row G (100 μg/mL). Wells in Row A contained a final concentration of 64 μg/mL of Compound B; Row B contained a final concentration of 32 μg/mL of Compound B; Row C contained a final concentration of 16 μg/mL of Compound B; etc. Compound B was not added to Row H, so Row H only contained Compound A. […] The MIC of the glycopeptide antibacterial agent determined from this experiment was used in FIC calculations. […] RPMI-1640 without sodium bicarbonate media (GIBCO-BRL, Carlsbad, Calif.), an enriched media formulated for mammalian cells, was used according to the NCCLS guidelines for yeast and filamentous fungi susceptibility testing. The medium was buffered with 0.165 M 3-[N-Morpholino]propanesulfonic acid (MOPS) supplemented with 20 g/L glucose and pH adjusted to 7.0 with hydrogen chloride. Sabouraud Dextrose Agar ([…] plates, and Potato Dextrose Agar (PDA) plates were purchased from Hardy Diagnostic (Santa Maria, Calif.). Yeast cultures were started from -80° C. frozen stock streaked on […] incubated at 35° C. under aerobic conditions for 24 h. The […] in the refrigerator for up to 2 weeks and used regularly as a starting culture. About 24 to 48 h before each assay was run, yeasts were streaked on SDA plates for isolated colonies. To prepare the inoculum, from one to four colonies were resuspended in 5 mL of saline, and vortexed for 15 sec. […] For most yeast and mold cultures, the optical density (OD) of the suspension was adjusted to 0.11 in saline to provide 0.4×10^6 CFU/mL. However, for Fusarium moniliforme and Pseudallescheria boydii the OD of the suspension was adjusted to OD=0.17 to provide 0.4×10^6 CFU/mL. […]

Assay [2] concerns C. glabrata ATCC 200918. The assay is described as follows: Checkerboard MIC assay, FICI. Particulars: combination with Compound 1. In kind it is cell-based, Candida glabrata. The text has this:
The following assay was used to determine the minimum inhibitory concentration (MIC) and fractional inhibitory concentration index (FICI) for combinations of an antifungal agent and a glycopeptide antibacterial agent. This assay and methods for calculating FICI are well known in the art. See, for example, Eliopoulos, E. G. and R. Moellering, Jr. “Antimicrobial Combinations” in Antibiotics in Laboratory Medicine, edited by V. Lorian, 4th Ed., Williams & Wilkins, Baltimore, MD, pp. 330-396 (1996); […] et al., Antimicrobial Agents and Chemotherapy 47(4):1416-1418 (2003); or […] et al., Antimicrobial Agents and Chemotherapy 46(10):3323-3326 (2002). Procedures, protocols, supplies and equipment used in this assay follow the recommendations approved and published by the National Committee for Clinical Laboratory Standards (NCCLS), Wayne, Pa. as described in NCCLS 2003, “Reference Method for Broth Dilution Antimicrobial Susceptibility Tests for Bacteria that Grow Aerobically; Approved Standard” (NCCLS document M7-A6); NCCLS 2002, “Reference Method for Broth Dilution Antifungal Susceptibility Tests of Filamentous Fungi that Grow Aerobically; Approved Standard” (NCCLS document M38-A); and NCCLS 2002 “Reference Method for Broth Dilution Antifungal Susceptibility Tests of Yeast; Approved Standards-2nd Edition” (NCCLS document M27-A2). Using a checkerboard method, a 2-fold dilution 100× final concentration master plate was prepared using a 96-well U-shape microtiter plate and an appropriate solvent. In the “checkerboard” method, a microtiter plate is divided into “columns” in which each well in the column contains the same amount of an antifungal agent (Compound A) being diluted along the x-axis, and “rows” in which each well in the row contains the same amount of a glycopeptide antibacterial agent (Compound B) being diluted on the y-axis. Also included is a row (or column) for Compound A or B alone. The dilutions used in the checkerboard are exponential (by powers of two). The result is that each well in the microtiter plate contains a unique concentration of the two compounds being tested. […] After mixing, 100 μL of 2× drug combinations were distributed into 96-well microtiter plates. […] Compound A was not added to Column 12, so Column 12 contained only Compound B. Compound B was diluted from row A starting at 6,400 μg/mL down to row G (100 μg/mL). Wells in Row A contained a final concentration of 64 μg/mL of Compound B; Row B contained a final concentration of 32 μg/mL of Compound B; Row C contained a final concentration of 16 μg/mL of Compound B; etc. Compound B was not added to Row H, so Row H only contained Compound A. […] The MIC of the glycopeptide antibacterial agent determined from this experiment was used in FIC calculations. […]

As for `C[C@@H]1[C@H](O)[C@@H](C)/C=C/C=C/C=C/C=C/C=C/C=C/C=C/[C@H](O[C@@H]2O[C@H](C)[C@@H](O)[C@H](N)[C@@H]2O)C[C@@H]2O[C@](O)(C[C@@H](O)C[C@@H](O)[C@H](O)CC[C@@H](O)C[C@@H](O)CC(=O)O[C@H]1C)C[C@H](O)[C@H]2C(=O)O` [Amphotericin B], the FICI in assay [1] was 0.31; in assay [2], 0.19.
Taken in the same sequence, the figures for `C[C@@H]1[C@H](O)[C@@H](C)/C=C/C=C/CC/C=C/C=C/C=C/C=C/C(O[C@H]2O[C@H](C)[C@@H](O)[C@H](N)[C@@H]2O)CC2O[C@](O)(CC(O)C(O)CCC(O)CC(O)CC(O)CC(=O)O[C@H]1C)CC(O)C2C(=O)O` (stereo partly shown) [Nystatin] were 0.50 and 0.31.
